pEC50: −log10 of the molar value.
How the values were obtained:
[1] = target: T1, human TGR5 (h-TGR5) (Homo sapiens, UniProt Q8TDU6); experiment: TGR5/CRE-Luciferase Assay; format: cell-based; details: HEK 293 hTGR5/CRE-Luc cells, 6 hours incubation, read-out: CRE-Luc Agonist (EC50)
T1 sequence (Q8TDU6 1-330): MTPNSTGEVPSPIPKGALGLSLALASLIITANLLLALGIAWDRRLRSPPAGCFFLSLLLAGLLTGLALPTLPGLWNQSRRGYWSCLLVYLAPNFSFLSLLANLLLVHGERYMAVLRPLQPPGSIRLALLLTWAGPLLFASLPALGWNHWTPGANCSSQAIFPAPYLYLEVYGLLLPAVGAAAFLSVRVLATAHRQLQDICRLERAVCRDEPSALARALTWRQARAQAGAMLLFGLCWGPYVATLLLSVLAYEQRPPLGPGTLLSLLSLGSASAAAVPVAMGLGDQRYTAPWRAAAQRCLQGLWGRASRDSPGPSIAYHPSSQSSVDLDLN
Description: HEK 293 cells stably expressing human TGR5 (h-TGR5) or mouse TGR5 (m-TGR5) were generated from HEK 293 CRE-Luciferase cells. The day before the assay, HEK 293 hTGR5/CRE-Luc cells were plated in DMEM in a 384 well assay plate at a density of 25 k cells/45 μL per well and grown for 18-20 hours. Compounds were serially diluted in DMEM containing 5% DMSO and 5 µL of compound or media alone was transferred to each well and plates were incubated for 6 hours. Following incubation, 30 μL of lysis/luciferase buffer was added to each well. The luciferase activity was then measured on the EnVision™ plate reader and the dose response data was analyzed using ActivityBase.
(§1) In the following tables, ECso values determined according to the TGR5 cAMP Assay are noted (cAMP); EC50 values determined according to the TGR5/CRE-Luciferiase Assay are noted (CRE-Luc).

[2] = target: T2, h-TGR5 (Homo sapiens, UniProt Q8TDU6); experiment: TGR5 cAMP Assay using Cisbio cAMP Dynamic 2 htrf assay kit; format: cell-based; details: hTGR5CRE-luc HEK 293 cells
T2 sequence (Q8TDU6 1-330): T1 sequence (Q8TDU6 1-330)
Description: Compounds were diluted in DPBS with 5% DMSO (8-point serial dilution by half logs) in a 96-well plate and 1 μL was transferred to a 384-well assay plate in quadruplicate. The d2-cAMP and anti-cAMP Ab-cryptate stock solution were prepared as per the instructions in the Cisbio™ (Bedford, Mass.) kit. Cells (hTGR5CRE-luc HEK 293 and mTGR5CRE-luc HEK 293) were harvested using cell dissociation buffer and resuspended in DPBS. Cells were adjusted to 0.44×10^6 cells/ml followed by addition of IBMX to a final concentration of 0.5 mM. The cells were then mixed with d2-cAMP solution (7.1 mL cells+100 ul d2-cAMP) and 4000 cells (9 μL) were transferred to each well of the 384-well assay plate. Cells without d2-cAMP were added to eight wells as a negative control. The plate was covered and incubated at room temp for 30 min. Then 10 μL of Ab-cryptate solution was added to each well of the assay plate and incubated for 1 hr. The plate was read on an EnVision™ plate reader (Perkin-Elmer, Waltham, Mass.) and the DeltaF value was calculated as per the instructions in the Cisbio™ kit.
as §1

Molecule	pEC50 [1]	pEC50 [2]
2-({[3-chloro-5-fluoro-4-({[5-{1-[4-fluoro-3-(methyloxy)phenyl]-1-methylethyl}-1-(4-fluorophenyl)-1H-imidazol-2-yl]thio}methyl)phenyl]carbonyl}amino)-N,N,N-trimethylethanaminium [Example 1d]	> 7.00	> 7.00
COc1cc(C(C)(C)c2cnc(SCc3c(F)cc(S(=O)(=O)NCCC[n+]4ccn(C)c4)cc3Cl)n2-c2ccc(F)cc2)ccc1F [Compound 10, 3-(3-(3-chloro-5-fluoro-4-((5-(2-(4-fluoro-3-methoxyphenyl)propan-2-yl)-1-(4-fluorophenyl)-1H-imidazol-2-ylthio)methyl)phenylsulfonamido)propyl)-1-methyl-1H-imidazol-3-ium methanesulfonate]	> 7.00	> 7.00
COc1cc(C(C)(C)c2cnc(SCc3c(F)cc(S(=O)(=O)NCCc4ccc[n+](C)c4)cc3Cl)n2-c2ccc(F)cc2)ccc1F [Compound 11, 3-(2-(3-chloro-5-fluoro-4-((5-(2-(4-fluoro-3-methoxyphenyl)propan-2-yl)-1-(4-fluorophenyl)-1H-imidazol-2-ylthio)methyl)phenylsulfonamido)ethyl)-1-methylpyridinium chloride]	> 7.00	> 7.00
COc1cc(C(C)(C)c2cnc(SCc3c(F)cc(S(=O)(=O)N[C@H]4CCC[N+](C)(C)C4)cc3Cl)n2-c2ccc(F)cc2)ccc1Cl [Compound 11a, (3S)-3-({[3-chloro-4-({[5-{1-[4-chloro-3-(methyloxy)phenyl]-1-methylethyl}-1-(4-fluorophenyl)-1H-imidazol-2-yl]thio}methyl)-5-fluorophenyl]sulfonyl}amino)-1,1-dimethylpiperidinium]	> 7.00	> 7.00
COc1cc(C(C)(C)c2cnc(SCc3c(F)cc(S(=O)(=O)NC4CC[N+](C)(C)CC4)cc3F)n2-c2ccc(F)cc2)ccc1Cl [Compound 11b, 4-({[4-({[5-{1-[4-chloro-3-(methyloxy)phenyl]-1-methylethyl}-1-(4-fluorophenyl)-1H-imidazol-2-yl]thio}methyl)-3,5-difluorophenyl]sulfonyl}amino)-1,1-dimethylpiperidinium]	> 7.00	> 7.00
COc1cc(C(C)(C)c2cnc(SCc3c(F)cc(S(=O)(=O)N4CCC([N+](C)(C)C)CC4)cc3F)n2-c2ccc(F)cc2)ccc1Cl [Compound 11c, 1-{[4-({[5-{1-[4-chloro-3-(methyloxy)phenyl]-1-methylethyl}-1-(4-fluorophenyl)-1H-imidazol-2-yl]thio}methyl)-3,5-difluorophenyl]sulfonyl}-N,N,N-trimethylpiperidin-4-aminium]	> 7.00	> 7.00
COc1cc(C(C)(C)c2cnc(SCc3c(F)cc(S(=O)(=O)N[C@@H]4CCC[N+](C)(C)C4)cc3F)n2-c2ccc(F)cc2)ccc1Cl [Compound 11d, (3R)-3-({[4-({[5-{1-[4-chloro-3-(methyloxy)phenyl]-1-methylethyl}-1-(4-fluorophenyl)-1H-imidazol-2-yl]thio}methyl)-3,5-difluorophenyl]sulfonyl}amino)-1,1-dimethylpiperidinium]	> 7.00	> 7.00
COc1cc(C(C)(C)c2cnc(SCc3c(F)cc(S(=O)(=O)N[C@H]4CCC[N+](C)(C)C4)cc3F)n2-c2ccc(F)cc2)ccc1Cl [Compound 11e, (3S)-3-({[4-({[5-{1-[4-chloro-3-(methyloxy)phenyl]-1-methylethyl}-1-(4-fluorophenyl)-1H-imidazol-2-yl]thio}methyl)-3,5-difluorophenyl]sulfonyl}amino)-1,1-dimethylpiperidinium]	> 7.00	> 7.00
COc1cc(C(C)(C)c2cnc(SCc3c(F)cc(S(=O)(=O)N4CCC([N+](C)(C)C)CC4)cc3Cl)n2-c2ccc(F)cc2)ccc1Cl [Compound 11f, 1-{[3-chloro-4-({[5-{1-[4-chloro-3-(methyloxy)phenyl]-1-methylethyl}-1-(4-fluorophenyl)-1H-imidazol-2-yl]thio}methyl)-5-fluorophenyl]sulfonyl}-N,N,N-trimethylpiperidin-4-aminium]	> 7.00	> 7.00
COc1cc(C(C)(C)c2cnc(SCc3c(F)cc(S(=O)(=O)N4CCC[C@@H]([N+](C)(C)C)C4)cc3Cl)n2-c2ccc(F)cc2)ccc1Cl [Compound 11g, (3R)-1-{[3-chloro-4-({[5-{1-[4-chloro-3-(methyloxy)phenyl]-1-methylethyl}-1-(4-fluorophenyl)-1H-imidazol-2-yl]thio}methyl)-5-fluorophenyl]sulfonyl}-N,N,N-trimethylpiperidin-3-aminium]	> 7.00	> 7.00

Other lines, results leading:

pEC50 [1]	pEC50 [2]	Molecule
> 7.00	> 7.00	COc1cc(C(C)(C)c2cnc(SCc3c(F)cc(S(=O)(=O)N4CCC[C@H]([N+](C)(C)C)C4)cc3Cl)n2-c2ccc(F)cc2)ccc1Cl [Compound 11h, (3S)-1-{[3-chloro-4-({[5-{1-[4-chloro-3-(methyloxy)phenyl]-1-methylethyl}-1-(4-fluorophenyl)-1H-imidazol-2-yl]thio}methyl)-5-fluorophenyl]sulfonyl}-N,N,N-trimethylpiperidin-3-aminium]
> 7.00	> 7.00	COc1cc(C(C)(C)c2cnc(SCc3c(F)cc(S(=O)(=O)N4CC[C@@H]([N+](C)(C)C)C4)cc3Cl)n2-c2ccc(F)cc2)ccc1Cl [Compound 11i, (3R)-1-{[3-chloro-4-({[5-{1-[4-chloro-3-(methyloxy)phenyl]-1-methylethyl}-1-(4-fluorophenyl)-1H-imidazol-2-yl]thio}methyl)-5-fluorophenyl]sulfonyl}-N,N,N-trimethylpyrrolidin-3-aminium]
> 7.00	> 7.00	CC[N+](C)(C)C1CCN(S(=O)(=O)c2cc(F)c(CSc3ncc(C(C)(C)c4ccc(Cl)c(OC)c4)n3-c3ccc(F)cc3)c(Cl)c2)CC1 [Compound 11j, 1-{[3-chloro-4-({[5-{1-[4-chloro-3-(methyloxy)phenyl]-1-methylethyl}-1-(4-fluorophenyl)-1H-imidazol-2-yl]thio}methyl)-5-fluorophenyl)sulfonyl}-N-ethyl-N,N-dimethylpiperidin-4-aminium]
> 7.00	> 7.00	COc1cc(C(C)(C)c2cnc(SCc3c(F)cc(S(=O)(=O)N4CC[N+](C)(C)CC4)cc3Cl)n2-c2ccc(F)cc2)ccc1Cl [Compound 11k, 4-{[3-chloro-4-({[5-{1-[4-chloro-3-(methyloxy)phenyl]-1-methylethyl}-1-(4-fluorophenyl)-1H-imidazol-2-yl]thio}methyl)-5-fluorophenyl]sulfonyl}-1,1-dimethylpiperazin-1-ium]
> 7.00	> 7.00	COc1cc(C(C)(C)c2cnc(SCc3c(F)cc(S(=O)(=O)N4CC[C@H]([N+](C)(C)C)C4)cc3Cl)n2-c2ccc(F)cc2)ccc1Cl [Compound 11l, (3S)-1-{[3-chloro-4-({[5-{1-[4-chloro-3-(methyloxy)phenyl]-1-methylethyl}-1-(4-fluorophenyl)-1H-imidazol-2-yl]thio}methyl)-5-fluorophenyl]sulfonyl}-N,N,N-trimethylpyrrolidin-3-aminium]
> 7.00	> 7.00	CC[N+](C)(C)CCCN(C)S(=O)(=O)c1cc(F)c(CSc2ncc(C(C)(C)c3ccc(Cl)c(OC)c3)n2-c2ccc(F)cc2)c(Cl)c1 [Compound 11m, 3-[{[3-chloro-4-({[5-{1-[4-chloro-3-(methyloxy)phenyl]-1-methylethyl}-1-(4-fluorophenyl)-1H-imidazol-2-yl]thio}methyl)-5-fluorophenyl)sulfonyl}(methyl)amino]-N-ethyl-N,N-dimethylpropan-1-aminium]
> 7.00	> 7.00	COc1cc(C(C)(C)c2cnc(SCc3c(F)cc(S(=O)(=O)N4CC([N+](C)(C)C)C4)cc3Cl)n2-c2ccc(F)cc2)ccc1Cl [Compound 11n, 1-{[3-chloro-4-({[5-{1-[4-chloro-3-(methyloxy)phenyl]-1-methylethyl}-1-(4-fluorophenyl)-1H-imidazol-2-yl]thio}methyl)-5-fluorophenyl]sulfonyl}-N,N,N-trimethylazetidin-3-aminium]

— patent publication US8846739B2, “TGR5 agonists” (Exelixis Patent Company LLC, priority 2009, dated 2014)
